Assay results as given in ChEMBL document CHEMBL5223126, “Development of selective FGFR1 degraders using a Rapid synthesis of proteolysis targeting Chimera (Rapid-TAC) platform” (Bioorg Med Chem Lett, 2022).
Activity calls are given as the source filed them. The rule behind the calls is not given here.

Key:
[1] = biological target: Protein cereblon/Fibroblast growth factor receptor 2 (Homo sapiens) (UniProt P21802+Q96SW2); experiment: PROTAC activity at FGFR2/CRBN in human MCF7 cells assessed as FGFR2 degradation at 0.1 to 10 uM incubated for 6 hrs by Western blot analysis; format: cell-based; settings: dose 0.1-10 µM
[2] = biological target: T1, Protein cereblon/Fibroblast growth factor receptor 1 (Homo sapiens) (UniProt P11362+Q96SW2); experiment: PROTAC activity at FGFR1/CRBN in human MCF7 cells assessed as FGFR1 degradation at 0.1 to 10 uM incubated for 6 hrs by Western blot analysis; format: cell-based; settings: dose 0.1-10 µM
[3] = biological target: Protein cereblon/Fibroblast growth factor receptor 3 (Homo sapiens) (UniProt P22607+Q96SW2); experiment: PROTAC activity at FGFR3/CRBN in human MCF7 cells assessed as FGFR3 degradation at 0.1 to 10 uM incubated for 6 hrs by Western blot analysis; format: cell-based; settings: dose 0.1-10 µM
[4] = biological target: Protein cereblon/Fibroblast growth factor receptor 4 (Homo sapiens) (UniProt P22455+Q96SW2); experiment: PROTAC activity at FGFR4/CRBN in human MCF7 cells assessed as FGFR4 degradation at 0.1 to 10 uM incubated for 6 hrs by Western blot analysis; format: cell-based; settings: dose 0.1-10 µM
[5] = biological target: T1, Protein cereblon/Fibroblast growth factor receptor 1 (Homo sapiens); experiment: PROTAC activity at FGFR1/CRBN in human NCI-H1581 cells assessed as FGFR1 degradation at 0.1 to 10 uM incubated for 6 hrs by Western blot analysis; format: cell-based; settings: dose 0.1-10 µM
[6] = biological target: T1, Protein cereblon/Fibroblast growth factor receptor 1 (Homo sapiens); experiment: PROTAC activity at FGFR1/CRBN in human DMS-114 cells assessed as FGFR1 degradation at 0.1 to 10 uM incubated for 6 hrs by Western blot analysis; format: cell-based; settings: dose 0.1-10 µM
[7] = biological target: von Hippel-Lindau disease tumor suppressor/Fibroblast growth factor receptor 1 (Homo sapiens) (UniProt P11362+P40337); experiment: PROTAC activity at FGFR1/VHL in human MCF7 cells assessed as FGFR1 degradation at 100 nM incubated for 6 hrs by Western blot analysis; format: cell-based
[8] = biological target: T1, Protein cereblon/Fibroblast growth factor receptor 1 (Homo sapiens); experiment: PROTAC activity at FGFR1/CRBN in human MCF7 cells assessed as FGFR1 degradation at 100 nM incubated for 6 hrs by Western blot analysis; format: cell-based
NCI-H1581 = experiment: Antiproliferative activity against human NCI-H1581 cells assessed as inhibition of cell growth incubated for 120 hrs by MTT assay; format: functional, cell-based; settings: NCI-H1581, 120 h
DMS-114 = experiment: Antiproliferative activity against human DMS-114 cells assessed as inhibition of cell growth incubated for 120 hrs by MTT assay; format: functional, cell-based; settings: DMS-114, 120 h

Chain of Protein cereblon/Fibroblast growth factor receptor 4 (Homo sapiens) (P22455 whole entry, looked up): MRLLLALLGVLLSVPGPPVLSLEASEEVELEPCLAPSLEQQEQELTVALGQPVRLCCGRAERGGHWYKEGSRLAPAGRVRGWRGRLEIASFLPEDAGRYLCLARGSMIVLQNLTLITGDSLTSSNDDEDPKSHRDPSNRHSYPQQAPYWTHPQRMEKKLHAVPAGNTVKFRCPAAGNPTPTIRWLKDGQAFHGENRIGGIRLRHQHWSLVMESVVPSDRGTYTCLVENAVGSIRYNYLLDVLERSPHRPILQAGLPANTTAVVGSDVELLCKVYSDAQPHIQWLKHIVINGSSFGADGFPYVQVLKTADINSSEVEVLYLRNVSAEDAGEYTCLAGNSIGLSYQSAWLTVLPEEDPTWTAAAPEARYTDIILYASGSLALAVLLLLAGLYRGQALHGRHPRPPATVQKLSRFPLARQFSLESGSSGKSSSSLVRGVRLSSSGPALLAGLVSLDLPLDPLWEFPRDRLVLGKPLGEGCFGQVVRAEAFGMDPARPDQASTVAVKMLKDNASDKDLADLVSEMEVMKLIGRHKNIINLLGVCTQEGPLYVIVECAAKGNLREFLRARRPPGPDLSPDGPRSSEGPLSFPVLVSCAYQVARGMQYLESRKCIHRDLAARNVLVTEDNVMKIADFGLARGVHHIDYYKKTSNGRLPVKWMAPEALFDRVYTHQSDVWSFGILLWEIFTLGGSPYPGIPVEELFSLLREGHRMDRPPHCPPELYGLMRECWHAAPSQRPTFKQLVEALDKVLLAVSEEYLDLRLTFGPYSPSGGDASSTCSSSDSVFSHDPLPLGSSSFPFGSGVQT
Chain of Protein cereblon/Fibroblast growth factor receptor 4 (Homo sapiens) (Q96SW2 whole entry, looked up): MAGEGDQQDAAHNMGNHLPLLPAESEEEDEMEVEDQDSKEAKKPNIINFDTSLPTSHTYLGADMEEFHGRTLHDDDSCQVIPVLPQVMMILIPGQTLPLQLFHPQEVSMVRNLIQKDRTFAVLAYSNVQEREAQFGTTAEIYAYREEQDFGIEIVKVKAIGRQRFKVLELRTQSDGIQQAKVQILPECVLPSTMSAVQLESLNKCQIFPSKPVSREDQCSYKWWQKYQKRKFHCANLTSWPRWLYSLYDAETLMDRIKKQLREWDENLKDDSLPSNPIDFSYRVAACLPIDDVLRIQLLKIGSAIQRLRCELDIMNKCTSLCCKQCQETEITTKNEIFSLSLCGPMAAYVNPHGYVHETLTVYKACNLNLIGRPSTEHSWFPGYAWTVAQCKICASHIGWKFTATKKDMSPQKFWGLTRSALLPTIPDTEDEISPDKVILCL
Chain of Protein cereblon/Fibroblast growth factor receptor 2 (Homo sapiens) (P21802 22-821 limits assumed): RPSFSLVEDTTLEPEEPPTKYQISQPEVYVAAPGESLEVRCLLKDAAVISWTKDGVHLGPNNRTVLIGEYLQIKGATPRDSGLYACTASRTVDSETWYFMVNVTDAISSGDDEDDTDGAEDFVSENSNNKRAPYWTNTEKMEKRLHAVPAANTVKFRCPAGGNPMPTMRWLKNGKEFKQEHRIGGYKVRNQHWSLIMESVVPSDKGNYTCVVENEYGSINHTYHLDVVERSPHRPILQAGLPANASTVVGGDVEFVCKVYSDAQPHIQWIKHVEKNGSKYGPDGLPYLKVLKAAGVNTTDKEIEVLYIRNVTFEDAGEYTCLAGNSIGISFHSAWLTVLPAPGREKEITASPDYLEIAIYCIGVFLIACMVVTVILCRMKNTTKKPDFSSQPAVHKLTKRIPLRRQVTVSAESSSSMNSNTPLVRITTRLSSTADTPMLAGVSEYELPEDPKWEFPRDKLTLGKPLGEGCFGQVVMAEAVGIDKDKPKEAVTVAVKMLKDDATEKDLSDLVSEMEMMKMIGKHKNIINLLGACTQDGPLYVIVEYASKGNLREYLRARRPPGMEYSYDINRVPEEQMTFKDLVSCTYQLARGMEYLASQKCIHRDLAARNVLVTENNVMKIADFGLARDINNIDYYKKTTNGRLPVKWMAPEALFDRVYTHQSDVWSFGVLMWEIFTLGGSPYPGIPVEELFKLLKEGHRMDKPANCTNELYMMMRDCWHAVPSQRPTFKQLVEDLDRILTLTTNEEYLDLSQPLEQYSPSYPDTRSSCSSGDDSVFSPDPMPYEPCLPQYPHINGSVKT
Chain of Protein cereblon/Fibroblast growth factor receptor 2 (Homo sapiens) (Q96SW2 whole entry partner): as the sequence (Q96SW2 whole entry, looked up) above
Chain of von Hippel-Lindau disease tumor suppressor/Fibroblast growth factor receptor 1 (Homo sapiens) (P11362 22-822 limits assumed): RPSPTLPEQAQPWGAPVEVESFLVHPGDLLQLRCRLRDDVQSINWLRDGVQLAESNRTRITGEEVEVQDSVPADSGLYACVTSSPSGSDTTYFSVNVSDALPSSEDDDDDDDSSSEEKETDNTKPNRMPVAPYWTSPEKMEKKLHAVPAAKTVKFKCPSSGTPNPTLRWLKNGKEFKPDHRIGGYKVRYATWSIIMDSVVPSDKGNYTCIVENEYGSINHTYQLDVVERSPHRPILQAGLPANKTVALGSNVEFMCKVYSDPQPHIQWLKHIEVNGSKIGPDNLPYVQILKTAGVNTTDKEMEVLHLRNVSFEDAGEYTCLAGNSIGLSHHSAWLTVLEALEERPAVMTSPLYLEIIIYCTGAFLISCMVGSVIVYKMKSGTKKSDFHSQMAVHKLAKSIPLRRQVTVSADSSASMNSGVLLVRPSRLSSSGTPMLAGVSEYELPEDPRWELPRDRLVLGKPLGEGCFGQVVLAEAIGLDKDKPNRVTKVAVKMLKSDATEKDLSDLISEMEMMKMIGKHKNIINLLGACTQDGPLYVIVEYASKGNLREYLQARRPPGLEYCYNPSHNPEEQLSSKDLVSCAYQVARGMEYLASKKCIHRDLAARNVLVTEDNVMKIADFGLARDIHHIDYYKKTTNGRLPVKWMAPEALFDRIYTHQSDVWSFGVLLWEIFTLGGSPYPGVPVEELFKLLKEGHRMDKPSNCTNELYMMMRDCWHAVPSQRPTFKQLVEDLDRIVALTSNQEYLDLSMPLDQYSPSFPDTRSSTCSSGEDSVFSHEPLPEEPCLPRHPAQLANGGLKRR
Chain of von Hippel-Lindau disease tumor suppressor/Fibroblast growth factor receptor 1 (Homo sapiens) (P40337 whole entry partner): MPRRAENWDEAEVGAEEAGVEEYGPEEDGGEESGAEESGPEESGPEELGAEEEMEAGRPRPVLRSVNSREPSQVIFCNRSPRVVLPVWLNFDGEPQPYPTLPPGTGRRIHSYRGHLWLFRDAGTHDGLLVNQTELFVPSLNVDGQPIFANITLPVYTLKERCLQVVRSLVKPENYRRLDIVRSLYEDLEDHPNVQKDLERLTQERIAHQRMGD
Chain of Protein cereblon/Fibroblast growth factor receptor 3 (Homo sapiens) (P22607 whole entry, looked up): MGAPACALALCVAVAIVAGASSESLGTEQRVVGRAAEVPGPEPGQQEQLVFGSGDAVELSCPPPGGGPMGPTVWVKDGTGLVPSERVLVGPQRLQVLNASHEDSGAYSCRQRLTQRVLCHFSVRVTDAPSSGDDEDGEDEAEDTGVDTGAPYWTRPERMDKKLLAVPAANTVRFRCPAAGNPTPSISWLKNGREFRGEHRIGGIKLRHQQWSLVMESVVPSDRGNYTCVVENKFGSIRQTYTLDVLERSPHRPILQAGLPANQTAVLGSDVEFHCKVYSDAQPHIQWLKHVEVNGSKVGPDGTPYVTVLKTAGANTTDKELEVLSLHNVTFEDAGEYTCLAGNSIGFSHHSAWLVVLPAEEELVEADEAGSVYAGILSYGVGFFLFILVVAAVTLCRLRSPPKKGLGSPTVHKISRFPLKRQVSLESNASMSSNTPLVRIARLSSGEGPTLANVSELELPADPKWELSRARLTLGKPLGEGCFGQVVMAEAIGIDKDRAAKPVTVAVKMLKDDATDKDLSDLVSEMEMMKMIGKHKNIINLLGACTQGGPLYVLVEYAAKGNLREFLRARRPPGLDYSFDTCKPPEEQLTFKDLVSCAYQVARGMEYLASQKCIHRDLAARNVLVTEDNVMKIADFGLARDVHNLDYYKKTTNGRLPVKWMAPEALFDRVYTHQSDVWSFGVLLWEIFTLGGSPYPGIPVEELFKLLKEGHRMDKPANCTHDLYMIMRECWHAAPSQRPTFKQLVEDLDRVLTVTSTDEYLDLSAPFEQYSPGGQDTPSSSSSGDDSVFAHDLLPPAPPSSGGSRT
Chain of Protein cereblon/Fibroblast growth factor receptor 3 (Homo sapiens) (Q96SW2 whole entry, looked up): as the sequence (Q96SW2 whole entry, looked up) above
T1 sequence (P11362 whole entry, looked up): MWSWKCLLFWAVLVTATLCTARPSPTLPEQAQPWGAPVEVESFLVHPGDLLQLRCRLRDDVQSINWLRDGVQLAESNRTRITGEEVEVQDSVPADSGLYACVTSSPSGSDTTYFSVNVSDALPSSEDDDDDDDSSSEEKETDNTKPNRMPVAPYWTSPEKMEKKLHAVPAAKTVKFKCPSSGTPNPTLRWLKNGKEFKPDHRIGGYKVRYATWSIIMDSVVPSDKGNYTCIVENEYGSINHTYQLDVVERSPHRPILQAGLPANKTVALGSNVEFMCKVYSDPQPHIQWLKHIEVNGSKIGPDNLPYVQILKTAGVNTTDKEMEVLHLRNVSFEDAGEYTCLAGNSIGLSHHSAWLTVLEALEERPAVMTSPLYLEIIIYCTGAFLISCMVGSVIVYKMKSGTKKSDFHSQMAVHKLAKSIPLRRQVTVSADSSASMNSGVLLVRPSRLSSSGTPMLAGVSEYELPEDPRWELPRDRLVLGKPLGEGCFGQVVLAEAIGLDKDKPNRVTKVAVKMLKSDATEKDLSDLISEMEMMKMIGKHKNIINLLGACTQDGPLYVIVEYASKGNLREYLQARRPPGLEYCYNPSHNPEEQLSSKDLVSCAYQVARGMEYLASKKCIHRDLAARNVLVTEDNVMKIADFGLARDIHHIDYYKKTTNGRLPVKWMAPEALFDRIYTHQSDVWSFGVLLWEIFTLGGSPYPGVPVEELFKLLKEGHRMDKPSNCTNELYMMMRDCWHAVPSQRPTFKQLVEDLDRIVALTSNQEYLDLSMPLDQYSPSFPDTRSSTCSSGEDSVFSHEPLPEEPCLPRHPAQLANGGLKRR
T1 sequence (Q96SW2 whole entry, looked up): as the sequence (Q96SW2 whole entry, looked up) above

COc1cc(CCc2cc(NC(=O)c3ccc(N4C[C@@H](C)N(CC(=O)N/N=C/c5ccc(OCCOCCOCCOCC(=O)NCC#Cc6cccc7c6CN(C6CCC(=O)NC6=O)C7=O)cc5)[C@@H](C)C4)cc3)n[nH]2)cc(OC)c1 (stereo not given in full)
Activity [1]: inactive
Activity [2]: Active
Activity [3]: inactive
Activity [4]: inactive

COc1cc(CCc2cc(NC(=O)c3ccc(N4C[C@@H](C)N(CC(=O)NCCc5ccc(OCCOCCOCC(=O)NC#Cc6cccc7c6CN(C6CCC(=O)NC6=O)C7=O)cc5)[C@@H](C)C4)cc3)n[nH]2)cc(OC)c1 (stereo not given in full)
Activity [5]: inactive
Activity [2]: Active
Activity [6]: inactive

COc1cc(CCc2cc(NC(=O)c3ccc(N4C[C@@H](C)N(CC(=O)N/N=C\c5ccc(OCCCCC(=O)N[C@H](C(=O)N6C[C@H](O)C[C@H]6C(=O)N[C@@H](C)c6ccc(-c7scnc7C)cc6)C(C)(C)C)cc5)[C@@H](C)C4)cc3)n[nH]2)cc(OC)c1
Activity [7]: Active

COc1cc(CCc2cc(NC(=O)c3ccc(N4C[C@@H](C)N(CC(=O)N/N=C/c5ccc(OCCCCC(=O)NCC#Cc6cccc7c6CN(C6CCC(=O)NC6=O)C7=O)cc5)[C@@H](C)C4)cc3)n[nH]2)cc(OC)c1 (stereo not given in full)
Activity [8]: Active

COc1cc(CCc2cc(NC(=O)c3ccc(N4C[C@@H](C)N(CC(=O)N/N=C/c5ccc(OCCOCCOCCOCC(=O)N[C@H](C(=O)N6C[C@H](O)C[C@H]6C(=O)N[C@@H](C)c6ccc(-c7scnc7C)cc6)C(C)(C)C)cc5)[C@@H](C)C4)cc3)n[nH]2)cc(OC)c1
Activity [7]: Active

COc1cc(CCc2cc(NC(=O)c3ccc(N4C[C@@H](C)N(CC(=O)N/N=C/c5ccc(OCCOCC(=O)NCC#Cc6cccc7c6CN(C6CCC(=O)NC6=O)C7=O)cc5)[C@@H](C)C4)cc3)n[nH]2)cc(OC)c1 (stereo not given in full)
Activity [1]: inactive
Activity [2]: Active
Activity [3]: inactive
Activity [4]: inactive

COc1cc(CCc2cc(NC(=O)c3ccc(N4C[C@@H](C)N(CC(=O)NCCc5ccc(OCC(=O)N[C@H](C(=O)N6C[C@H](O)C[C@H]6C(=O)N[C@@H](C)c6ccc(-c7scnc7C)cc6)C(C)(C)C)cc5)[C@@H](C)C4)cc3)n[nH]2)cc(OC)c1
IC50 (NCI-H1581): 160 nM
IC50 (DMS-114): 139 nM

COc1cc(CCc2cc(NC(=O)c3ccc(N4C[C@@H](C)N(CC(=O)N/N=C/c5ccc(OCCOCCOCCOCCOCCOCC(=O)NCC#Cc6cccc7c6CN(C6CCC(=O)NC6=O)C7=O)cc5)[C@@H](C)C4)cc3)n[nH]2)cc(OC)c1 (stereo not given in full)
Activity [1]: inactive
Activity [2]: Active
Activity [3]: inactive
Activity [4]: inactive

COc1cc(CCc2cc(NC(=O)c3ccc(N4C[C@@H](C)N[C@@H](C)C4)cc3)n[nH]2)cc(OC)c1 [FEXAGRATINIB]
IC50 (NCI-H1581): 4 nM
IC50 (DMS-114): 14 nM

COc1cc(CCc2cc(NC(=O)c3ccc(N4C[C@@H](C)N(CC(=O)N/N=C/c5ccc(OCCOCCOCC(=O)NCC#Cc6cccc7c6CN(C6CCC(=O)NC6=O)C7=O)cc5)[C@@H](C)C4)cc3)n[nH]2)cc(OC)c1 (stereo not given in full)
Activity [8]: Active

COc1cc(CCc2cc(NC(=O)c3ccc(N4C[C@@H](C)N(CC(=O)N/N=C\c5ccc(OCC(=O)N[C@H](C(=O)N6C[C@H](O)C[C@H]6C(=O)N[C@@H](C)c6ccc(-c7scnc7C)cc6)C(C)(C)C)cc5)[C@@H](C)C4)cc3)n[nH]2)cc(OC)c1
Activity [7]: Active

COc1cc(CCc2cc(NC(=O)c3ccc(N4C[C@@H](C)N(CC(=O)N/N=C/c5ccc(OCCOCCOCCOCCOCC(=O)N[C@H](C(=O)N6C[C@H](O)C[C@H]6C(=O)N[C@@H](C)c6ccc(-c7scnc7C)cc6)C(C)(C)C)cc5)[C@@H](C)C4)cc3)n[nH]2)cc(OC)c1
Activity [7]: Active
